These results are taken from patent US6608045B2 (priority 1998, dated 2003).

In assay [1] the test system is cell surface antigen CD69. The experiment in a line: Activation-induced CD69 expression in Jurkat T cells, flow cytometry. Type of assay: cell-based, human. Conditions: 1 μg/ml, OKT-3 + PMA, 20 hours. The protocol: 1 μg/ml of tautomycetin was added to 1×10^6 of Jurkat T cells, which were stimulated by 10 μg/ml of OKT-3 monoclonal antibody and 50 ng/ml of PMA, and the cells were incubated for 20 hours. Monoclonal antibody against CD69(anti-CD69 mAb) was treated to the cells to carry out color-reaction and analysed by flow cytometry.
(A flow cytometer gives signals particle by particle.)

Assay [2] relates to T-cell proliferation in mixed lymphocyte reaction (splenocytes of Balb/C and C57BL/6 mouse). The experiment in a line: Mouse mixed lymphocyte reaction (MLR), [3H]-thymidine labelling. In kind it is cell-based. The note with it: 72 hours + 24 hours [3H]-thymidine. The protocol:
After the mixed cell culture was incubated at 37° C. for 72 hours, under an environment of 5% CO2, [^3H]-thymidine was added to the plate and further incubated for 24 hours to investigate the suppressive activity against T-cell proliferation by the degree of thymidine labelling.

Assay [3] has as its system tyrosine phosphorylation of intracellular proteins (BcR signal transduction). Put plainly: Immunoblot of tyrosine phosphorylation in CD8-Igα/CD8-Igβ transfected BJAB cell (human B-cell). Type of assay: cell-based. Conditions: BJAB transfectants, stimulation by monoclonal antibody against BcR. On the technique in general: A western blot detects proteins with antibodies after separation by electrophoresis.

For assay [4], the system named is IL-2 expression. Put plainly: IL-2 expression reporter (NF-AT/IL-2 promoter β-galactosidase) in transfected Jurkat T cells stimulated by OKT-3 (TcR-mediated) and PMA. Type of assay: cell-based, human. The protocol: Monoclonal antibody OKT-3, which binds specifically to ε-chain of T-cell receptor(TcR)-CD3 complex, induces IL-2 expression and specific T-cell proliferation by activating TcR-mediated signal transduction. In this regard, the suppressive activity of tautomycetin against the expression of IL-2 stimulated via TcR was investigated: First, 10 μg of goat anti-mouse IgG was immobilized on 96-well microplate in an ELISA coating buffer(pH 9.0) and 10 μg of monoclonal antibody OKT-3 was also immobilzed thereon. To monitor the IL-2 expression level indirectly, transfected Jurkat T cells where the expression of β-galactosidase is driven by the multiple NF-AT(nuclear transcriptional activator) binding sites upstream of minimal IL-2 promoter, were employed and the cells were resuspended in RPMI medium containing 10% fetal bovine serum, 2 mM L-glutamine and 100 unit of penicillin. 1×10^5 of transfected Jurkat T cells were aliquoted to 96-well microplate, and incubated for 24 hours in a medium containing 64 nM PMA while changing the concentration of tautomycetin. Then, centrifugation was carried out to harvest cells, and washed twice with PBS. 150 μl of β-galactosidase detecting solution(containing 0.1% Triton X-100, 200 mM sodium phosphate, 2 mM MgCl2, 100 mM β-mercaptoethanol, 1.33 mg/ml ONPG) was added to each well and after 1 hour, 100 μl of 1M sodium carbonate was added to stop the reaction and measured the suppressive activity of tautomycetin against the IL-2 expression by spectrophotometry at a wavelength of 410 nm.

Assay [5] deals with tyrosine phosphorylation of intracellular proteins involved in TcR-mediated signal transduction. Put plainly: Immunoblot of tyrosine phosphorylation in CD8-ζ transfected Jurkat T cells stimulated by OKT-8. Type of assay: cell-based, human. The note with it: 1 μg/ml, 10 hours, Jurkat T CD8-ζ transfectants, OKT-8 stimulation. The protocol: The suppressive activity of tautomycetin against the signal transduction around the membrane was investigated by determining the suppressive activity against the tyrosine phosphorylation of intracellular protein: To analyse the pathway of signal transduction mediated by TcR, Jurkat T cells which were transfected with a recombinant gene fragment, CD8-ζ chimeric DNA, harboring the ecto+transmembrane domain of CD8 and endomembrane domain of CD3-ζ chain, were cultured in RPMI medium containing 10% fetal bovine serum, 2 mM L-glutamine and 100 unit of penicillin. 1 μg/ml of tautomycetin was treated to 1×10^6 of Jurkat T cell transfectants and incubated for 10 hours, then centrifugation was carried out to harvest cells. The cells were washed twice with PBS and then stimulated by 10 μg/ml of OKT-8 and 10 μg/ml of the rabbit anti-mouse IgG antibody. The tyrosine phosphorylation was detected by immunoblot where the protein was isolated by 12.5% SDS-polyacrylamide gel electrophoresis and transferred to Immunobilon-P membrane(Millipore, U.S.A.). The phosphorylated tyrosine residue of intracellular protein or ZAP-70 protein was detected by the treatment of monoclonal antibody 4G10(Upstate Biotech Inc., U.S.A) or monoclonal antibody against ZAP-70(Zymed, U.S.A.), respectively. […]

For assay [6], the system named is IL-2 expression. Put plainly: IL-2 expression reporter (NF-AT/IL-2 promoter β-galactosidase) in transfected Jurkat T cells stimulated by PMA and ionomycin. Type of assay: cell-based, human. The text has this: The suppressive activity of tautomycetin against the expression of interleukin-2(IL-2), which plays a crucial role in the immune system, was investigated by treating T-cell proliferating factors such as phorbol-12-myristate-13-acetate(PMA) and ionomycin, which activate protein kinase C to increase the level of diacylglycerol and Ca^2+ in cells: First, to monitor the IL-2 expression level indirectly, transfected Jurkat T cells where the expression of β-galactosidase is driven by the multiple NF-AT(nuclear transcriptional activator) binding sites upstream of minimal IL-2 promoter, were employed and the cells were resuspended in RPMI medium containing 10% fetal bovine serum, 2 mM L-glutamine and 100 unit of penicillin. 1×10^5 of transfected Jurkat T cells were aliquoted to 96-wll microplate, and incubated for 24 hours with the 4 μM ionomycin and 64 nM PMA, while changing the concentration of tautomycetin. Then, centrifugation was carried out to harvest cells, and washed twice with phosphate-buffered saline(PBS). 150 μl of β-galactosidase detecting solution(containing 0.1% Triton X-100, 200 mM sodium phosphate, 2 mM MgCl2, 100 mM β-mercaptoethanol, 1.33 mg/ml ONPG) was added to each well and incubated at 37° C. for 1 hour. 100 μl of 1M sodium carbonate was added to stop the reaction and measured the suppressive activity of tautomycetin against the IL-2 expression by spectrophotometry at a wavelength of 410 nm.

In assay [7] the test system is graft rejection in heart transplantation. Put plainly: Heart graft experiment (Lewis rat donor, Wistar rat recipient), heartbeat by palpation. In kind it is in vivo.
Assay [8] has as its system interleukin-2 receptor(IL-2R). The experiment in a line: Activation-induced interleukin-2 receptor expression on Jurkat T cell surface, flow cytometry. Type of assay: cell-based, human. Conditions: 1 μg/ml, OKT-3 + PMA. The protocol:
To investigate the suppressive activity against interleukin-2 receptor(IL-2R) expression on the cell surface, 1×10^6 of Jurkat T cell treated with 1 μg/ml of tautomycetin was activated by OKT-3 monoclonal antibody and PMA, and color-developed by the aid of monoclonal antibody against IL-2R(anti IL-2R mAb), then analysed by flow cytometry.

The next assay concerns Aspergillus niger. Put plainly: Antimicrobial activity by agar diffusion method (paper disc). Type of assay: cell-based. The protocol:
The antimicrobial activity of tautomycetin prepared in Example 3 was measured by agar diffusion method. 1×10^8/ml of spore suspension of Aspergillus niger was mixed with glucose-yeast extract agar medium and a paper disc containing tautomycetin was put on the agar plate.
Background: Agar diffusion results depend on both activity and mobility in agar.

A word on the IC50: it is the concentration needed to halve the response being measured. On to tautomycetin, for which the “activation-induced expression of cell surface antigen CD69” value in assay [1] is recorded as “suppresses the expression of cell surface antigen CD69”. Besides, in assay [2], the IC50 stood at 43 nM. Further, in assay [3], the “tyrosine phosphorylation of intracellular proteins in B-cell” value is listed as “does not inhibit”. The “IC50, suppressive activity against IL-2 expression” value in the assay with IL-2 expression [4] (Jurkat T transfectants, immobilized OKT-3 and 64 nM PMA, 24 hours) was 6.6e-06 ng/mL; in the assay with IL-2 expression [6] (Jurkat T transfectants, 4 μM ionomycin and 64 nM PMA, 24 hours), 3 ng/mL. Further, the “suppressive activity against IL-2 expression relative to cyclosporin A” value with IL-2 expression [4] (OKT-3 + PMA) is 100 times; in the assay with IL-2 expression [6] (PMA + ionomycin), 6 times. For the same substance, the “Suppressive Activity against IL-2 expression” value came out at 74.8 in the assay on IL-2 expression [4] (concentration 10^−7 μg/ml, OKT-3 + PMA); 46.8 in the assay on IL-2 expression [4] (concentration 10^−8 μg/ml, OKT-3 + PMA); 37.5 in the assay with IL-2 expression [4] (concentration 10^−9 μg/ml, OKT-3 + PMA); 12.8 in the assay on IL-2 expression [6] (concentration 0.001 μg/ml, PMA + ionomycin); 83.9 with IL-2 expression [6] (concentration 0.01 μg/ml, PMA + ionomycin); 88 in the assay on IL-2 expression [6] (concentration 0.1 μg/ml, PMA + ionomycin). Also, in the assay on IL-2 expression [6] (concentration 1 μg/ml, PMA + ionomycin), the “Suppressive Activity against IL-2 expression” value was found to be 98. Also, the “tyrosine phosphorylation of intracellular proteins (TcR-mediated signal transduction), except for ZAP-70” value in assay [5] is given as “inhibited”. In addition, the “concentration sustaining the heart movement, as fraction of cyclosporin A” value in assay [7] (i.p., injection formula of Example 11) is reported as 1/50; in assay [7] (i.v., injection formula of Example 12), 1/500. The “activation-induced expression of IL-2R on the cell surface” value in assay [8] was “suppresses the expression of IL-2R on the cell surface more effectively than cyclosporin A”. Moreover, the “minimum inhibitory concentration(MIC)” value with Aspergillus niger (48 hours at 28° C., size of growth inhibitory zone) is “less than 1 μg/ml”. Moreover, in the assay with Aspergillus niger (MIC comparison), the “antimicrobial strength relative to cyclosporin A” value is listed as 10 times.
